Experiments:
[1] = molecular target: Serine/threonine-protein kinase tousled-like 2 (Homo sapiens) (UniProt Q86UE8); assay: Selectivity interaction (KinomeScan (DiscoverX)) EUB0000595a TLK2; conditions: at 10 µM
[2] = molecular target: T1, Histone-lysine N-methyltransferase SUV39H1 (Homo sapiens) (UniProt O43463); conditions: at 10 µM
T1 sequence (whole entry): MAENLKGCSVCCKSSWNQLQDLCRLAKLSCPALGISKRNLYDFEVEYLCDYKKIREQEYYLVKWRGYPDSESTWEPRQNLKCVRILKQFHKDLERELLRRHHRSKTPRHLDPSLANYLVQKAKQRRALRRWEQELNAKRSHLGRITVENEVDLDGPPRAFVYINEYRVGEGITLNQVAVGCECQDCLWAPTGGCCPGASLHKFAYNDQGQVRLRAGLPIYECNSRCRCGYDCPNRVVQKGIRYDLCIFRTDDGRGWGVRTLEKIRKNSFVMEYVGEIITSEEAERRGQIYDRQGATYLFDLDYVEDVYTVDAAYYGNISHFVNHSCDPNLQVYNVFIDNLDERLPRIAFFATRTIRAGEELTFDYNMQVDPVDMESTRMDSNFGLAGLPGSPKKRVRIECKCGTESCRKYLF

[3] = molecular target: Ephrin type-A receptor 5 (Homo sapiens) (UniProt P54756); assay: Selectivity interaction (KinomeScan (DiscoverX)) EUB0000666a EPHA5; conditions: at 10 µM
Sequence of Ephrin type-A receptor 5 (Homo sapiens) (P54756 whole entry): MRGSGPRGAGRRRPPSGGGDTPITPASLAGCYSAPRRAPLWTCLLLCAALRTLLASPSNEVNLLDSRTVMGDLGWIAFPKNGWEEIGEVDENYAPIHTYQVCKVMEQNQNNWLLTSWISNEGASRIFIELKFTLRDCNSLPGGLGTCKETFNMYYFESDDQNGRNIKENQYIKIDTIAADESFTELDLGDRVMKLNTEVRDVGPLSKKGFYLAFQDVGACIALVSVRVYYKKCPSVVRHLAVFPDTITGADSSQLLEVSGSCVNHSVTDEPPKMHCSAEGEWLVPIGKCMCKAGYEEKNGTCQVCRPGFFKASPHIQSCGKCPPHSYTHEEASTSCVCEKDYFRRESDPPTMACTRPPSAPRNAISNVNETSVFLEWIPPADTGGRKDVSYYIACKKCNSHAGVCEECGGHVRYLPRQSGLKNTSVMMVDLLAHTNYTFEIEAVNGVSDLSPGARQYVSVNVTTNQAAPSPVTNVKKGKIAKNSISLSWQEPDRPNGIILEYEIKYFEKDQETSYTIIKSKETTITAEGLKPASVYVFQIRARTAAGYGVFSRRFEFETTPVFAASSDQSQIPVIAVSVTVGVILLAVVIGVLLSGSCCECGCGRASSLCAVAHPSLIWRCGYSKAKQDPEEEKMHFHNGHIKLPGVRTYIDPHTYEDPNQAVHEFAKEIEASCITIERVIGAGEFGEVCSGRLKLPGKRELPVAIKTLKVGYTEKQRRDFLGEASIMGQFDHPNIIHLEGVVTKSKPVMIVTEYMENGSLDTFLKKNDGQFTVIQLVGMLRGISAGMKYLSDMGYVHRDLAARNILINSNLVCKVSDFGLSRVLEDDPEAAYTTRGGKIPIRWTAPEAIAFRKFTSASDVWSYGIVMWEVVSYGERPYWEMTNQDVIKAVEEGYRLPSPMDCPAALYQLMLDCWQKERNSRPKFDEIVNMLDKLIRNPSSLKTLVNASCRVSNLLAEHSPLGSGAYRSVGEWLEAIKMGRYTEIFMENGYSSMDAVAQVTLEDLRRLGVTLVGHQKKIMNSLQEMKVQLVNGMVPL

[4] = molecular target: Phosphatidylinositol 4-phosphate 5-kinase type-1 gamma (Homo sapiens) (UniProt O60331); assay: Selectivity interaction (KinomeScan (DiscoverX)) EUB0001049a PIP5K1C; conditions: at 1 µM
[5] = molecular target: Ribosomal protein S6 kinase alpha-4 (Homo sapiens) (UniProt O75676); assay: Selectivity interaction (Upstate Kinase Profiler service (Millipore)) EUB0000056c RPS6KA4; conditions: at 1 µM
Sequence of Ribosomal protein S6 kinase alpha-4 (Homo sapiens) (O75676 whole entry, looked up): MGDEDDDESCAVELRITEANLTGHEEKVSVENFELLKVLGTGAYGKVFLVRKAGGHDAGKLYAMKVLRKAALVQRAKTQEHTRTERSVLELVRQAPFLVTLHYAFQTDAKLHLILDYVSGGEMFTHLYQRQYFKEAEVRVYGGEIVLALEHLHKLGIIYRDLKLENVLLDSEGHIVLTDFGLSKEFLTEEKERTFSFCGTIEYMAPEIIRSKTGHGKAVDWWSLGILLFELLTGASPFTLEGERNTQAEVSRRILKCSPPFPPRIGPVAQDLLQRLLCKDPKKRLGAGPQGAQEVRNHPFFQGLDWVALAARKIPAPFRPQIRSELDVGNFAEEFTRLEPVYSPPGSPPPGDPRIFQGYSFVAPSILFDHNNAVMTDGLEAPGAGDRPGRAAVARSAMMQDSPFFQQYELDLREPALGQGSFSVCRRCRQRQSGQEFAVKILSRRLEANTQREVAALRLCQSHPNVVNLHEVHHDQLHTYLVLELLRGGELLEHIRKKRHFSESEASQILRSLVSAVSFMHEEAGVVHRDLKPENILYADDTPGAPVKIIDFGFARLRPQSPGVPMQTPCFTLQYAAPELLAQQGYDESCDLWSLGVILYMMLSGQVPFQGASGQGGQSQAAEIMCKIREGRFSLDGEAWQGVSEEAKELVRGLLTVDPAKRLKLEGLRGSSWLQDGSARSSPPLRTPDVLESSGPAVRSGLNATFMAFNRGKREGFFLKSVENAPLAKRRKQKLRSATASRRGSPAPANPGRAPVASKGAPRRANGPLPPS

[6] = molecular target: Mitogen-activated protein kinase 7 (Homo sapiens) (UniProt Q13164); assay: Selectivity interaction (Kinase panel (Carna Biosciences)) EUB0001542aTs MAPK7; conditions: at 1 µM
[7] = molecular target: Sphingosine kinase 1 (Homo sapiens) (UniProt Q9NYA1); conditions: at 1 µM
Sequence of Sphingosine kinase 1 (Homo sapiens) (Q9NYA1 whole entry): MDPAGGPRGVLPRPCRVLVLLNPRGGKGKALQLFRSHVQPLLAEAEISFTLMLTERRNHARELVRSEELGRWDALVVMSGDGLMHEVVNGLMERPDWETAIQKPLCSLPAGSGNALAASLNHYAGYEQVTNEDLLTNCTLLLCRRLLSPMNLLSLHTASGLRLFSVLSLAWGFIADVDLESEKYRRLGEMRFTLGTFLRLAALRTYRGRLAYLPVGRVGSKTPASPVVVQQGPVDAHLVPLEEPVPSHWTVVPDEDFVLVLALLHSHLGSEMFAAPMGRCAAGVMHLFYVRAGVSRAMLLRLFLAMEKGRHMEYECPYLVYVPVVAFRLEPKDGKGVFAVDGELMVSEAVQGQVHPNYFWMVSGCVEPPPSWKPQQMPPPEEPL

[8] = molecular target: Cyclin-dependent kinase 7 (Homo sapiens, UniProt P50613); assay: Selectivity interaction (ActivX KiNativ screen (kinase selectivity in THP-1 cell lysates)) EUB0000639a CDK7; format: subcellular; conditions: lysate, at 0.04 µM
Sequence of Cyclin-dependent kinase 7 (P50613 whole entry): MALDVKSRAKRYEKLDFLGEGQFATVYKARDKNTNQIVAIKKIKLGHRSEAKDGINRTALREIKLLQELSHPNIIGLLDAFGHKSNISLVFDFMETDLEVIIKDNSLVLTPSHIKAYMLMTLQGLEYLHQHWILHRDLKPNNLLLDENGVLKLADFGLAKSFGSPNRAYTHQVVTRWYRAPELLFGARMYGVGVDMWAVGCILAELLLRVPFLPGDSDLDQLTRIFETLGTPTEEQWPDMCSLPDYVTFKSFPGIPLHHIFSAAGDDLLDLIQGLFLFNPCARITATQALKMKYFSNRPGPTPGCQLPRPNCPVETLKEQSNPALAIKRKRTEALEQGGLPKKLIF

[9] = molecular target: Ribosomal protein S6 kinase alpha-3 (Homo sapiens, UniProt P51812); assay: Selectivity interaction (ActivX KiNativ screen (kinase selectivity in THP-1 cell lysates)) EUB0000639a RPS6KA3; format: subcellular; conditions: lysate, at 5 µM
Sequence of Ribosomal protein S6 kinase alpha-3 (P51812 whole entry): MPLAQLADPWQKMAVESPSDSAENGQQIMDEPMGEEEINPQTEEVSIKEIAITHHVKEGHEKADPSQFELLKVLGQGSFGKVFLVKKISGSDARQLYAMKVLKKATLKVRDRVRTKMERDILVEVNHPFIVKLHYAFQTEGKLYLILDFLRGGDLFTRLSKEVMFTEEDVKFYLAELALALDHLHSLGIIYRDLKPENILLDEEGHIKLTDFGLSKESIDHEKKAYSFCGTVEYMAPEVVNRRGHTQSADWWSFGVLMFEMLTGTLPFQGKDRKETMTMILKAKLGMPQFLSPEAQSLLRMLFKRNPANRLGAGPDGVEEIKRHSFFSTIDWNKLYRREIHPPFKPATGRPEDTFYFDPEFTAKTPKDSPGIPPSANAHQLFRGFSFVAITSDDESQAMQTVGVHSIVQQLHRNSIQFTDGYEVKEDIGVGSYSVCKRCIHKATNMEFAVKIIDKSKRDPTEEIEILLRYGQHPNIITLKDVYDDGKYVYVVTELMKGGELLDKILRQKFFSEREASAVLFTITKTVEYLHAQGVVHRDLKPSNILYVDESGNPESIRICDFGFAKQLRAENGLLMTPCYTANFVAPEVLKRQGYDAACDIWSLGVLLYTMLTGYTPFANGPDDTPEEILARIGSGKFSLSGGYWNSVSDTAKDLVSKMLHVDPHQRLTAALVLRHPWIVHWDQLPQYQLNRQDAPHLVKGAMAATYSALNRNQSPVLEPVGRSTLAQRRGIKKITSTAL

[10] = molecular target: Dual specificity protein kinase CLK1 (Homo sapiens, UniProt P49759); assay: Selectivity interaction (KinomeScan (DiscoverX)) EUB0000655a CLK1; conditions: at 10 µM
[11] = molecular target: T2, Serine/threonine-protein kinase DCLK1 (Homo sapiens) (UniProt O15075); assay: Selectivity interaction (KinomeScan (DiscoverX)) EUB0000655a DCLK1; conditions: at 10 µM
T2 sequence (whole entry): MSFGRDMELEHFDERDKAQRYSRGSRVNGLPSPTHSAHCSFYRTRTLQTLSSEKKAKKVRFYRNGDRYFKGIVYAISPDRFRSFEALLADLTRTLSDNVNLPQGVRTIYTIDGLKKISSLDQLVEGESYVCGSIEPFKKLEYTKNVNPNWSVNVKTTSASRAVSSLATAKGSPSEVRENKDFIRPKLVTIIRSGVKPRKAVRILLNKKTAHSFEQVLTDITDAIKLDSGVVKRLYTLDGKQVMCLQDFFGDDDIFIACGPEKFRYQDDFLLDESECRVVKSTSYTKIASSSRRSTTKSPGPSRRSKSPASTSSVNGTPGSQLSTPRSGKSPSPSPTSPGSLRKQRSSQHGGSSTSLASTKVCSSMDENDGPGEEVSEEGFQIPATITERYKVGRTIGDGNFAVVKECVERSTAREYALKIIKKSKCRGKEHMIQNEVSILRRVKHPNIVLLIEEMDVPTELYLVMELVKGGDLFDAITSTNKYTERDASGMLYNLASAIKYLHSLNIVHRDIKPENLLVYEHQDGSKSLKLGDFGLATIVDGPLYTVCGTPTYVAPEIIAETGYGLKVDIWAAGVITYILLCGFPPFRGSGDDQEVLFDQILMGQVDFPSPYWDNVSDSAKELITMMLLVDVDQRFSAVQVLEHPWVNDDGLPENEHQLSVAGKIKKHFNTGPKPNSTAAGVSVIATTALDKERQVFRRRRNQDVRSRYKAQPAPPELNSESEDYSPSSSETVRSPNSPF

[12] = molecular target: Cyclin-dependent kinase 9 (Homo sapiens, UniProt P50750); assay: Selectivity interaction (KinomeScan (DiscoverX)) EUB0000655a CDK9; conditions: at 10 µM
[13] = molecular target: T3, Serine/threonine-protein kinase D2 (Homo sapiens) (UniProt Q9BZL6); conditions: at 10 µM
T3 sequence (whole entry): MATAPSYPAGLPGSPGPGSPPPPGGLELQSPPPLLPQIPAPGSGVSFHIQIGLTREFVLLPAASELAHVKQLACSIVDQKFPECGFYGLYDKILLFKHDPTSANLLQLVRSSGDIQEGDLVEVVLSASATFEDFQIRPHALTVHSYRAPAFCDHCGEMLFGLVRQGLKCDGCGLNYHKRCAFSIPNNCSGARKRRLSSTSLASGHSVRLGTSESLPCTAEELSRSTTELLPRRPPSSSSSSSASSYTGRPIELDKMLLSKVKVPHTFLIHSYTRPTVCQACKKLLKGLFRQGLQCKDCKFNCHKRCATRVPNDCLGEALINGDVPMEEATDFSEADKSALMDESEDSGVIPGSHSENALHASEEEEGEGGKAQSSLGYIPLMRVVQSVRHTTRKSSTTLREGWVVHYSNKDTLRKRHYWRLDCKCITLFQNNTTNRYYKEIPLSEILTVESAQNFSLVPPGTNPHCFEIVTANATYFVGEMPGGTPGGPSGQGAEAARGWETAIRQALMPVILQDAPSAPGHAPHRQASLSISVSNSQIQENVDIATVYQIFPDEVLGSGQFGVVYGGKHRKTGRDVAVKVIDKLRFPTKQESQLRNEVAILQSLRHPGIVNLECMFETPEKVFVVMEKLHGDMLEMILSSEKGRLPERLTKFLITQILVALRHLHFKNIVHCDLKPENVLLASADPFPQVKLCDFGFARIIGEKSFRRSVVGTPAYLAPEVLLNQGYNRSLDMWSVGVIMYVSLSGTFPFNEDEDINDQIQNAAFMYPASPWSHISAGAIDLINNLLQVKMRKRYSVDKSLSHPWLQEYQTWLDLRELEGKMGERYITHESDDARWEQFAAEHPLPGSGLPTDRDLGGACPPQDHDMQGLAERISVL

[14] = molecular target: Ribosomal protein S6 kinase alpha-1 (Homo sapiens, UniProt Q15418); assay: Selectivity interaction (Ambit KINOMEscan and KiNATiv profiling in Jurkat cells) EUB0000090b RPS6KA1; format: cell-based; conditions: at 1 µM
Sequence of Ribosomal protein S6 kinase alpha-1 (Q15418 whole entry): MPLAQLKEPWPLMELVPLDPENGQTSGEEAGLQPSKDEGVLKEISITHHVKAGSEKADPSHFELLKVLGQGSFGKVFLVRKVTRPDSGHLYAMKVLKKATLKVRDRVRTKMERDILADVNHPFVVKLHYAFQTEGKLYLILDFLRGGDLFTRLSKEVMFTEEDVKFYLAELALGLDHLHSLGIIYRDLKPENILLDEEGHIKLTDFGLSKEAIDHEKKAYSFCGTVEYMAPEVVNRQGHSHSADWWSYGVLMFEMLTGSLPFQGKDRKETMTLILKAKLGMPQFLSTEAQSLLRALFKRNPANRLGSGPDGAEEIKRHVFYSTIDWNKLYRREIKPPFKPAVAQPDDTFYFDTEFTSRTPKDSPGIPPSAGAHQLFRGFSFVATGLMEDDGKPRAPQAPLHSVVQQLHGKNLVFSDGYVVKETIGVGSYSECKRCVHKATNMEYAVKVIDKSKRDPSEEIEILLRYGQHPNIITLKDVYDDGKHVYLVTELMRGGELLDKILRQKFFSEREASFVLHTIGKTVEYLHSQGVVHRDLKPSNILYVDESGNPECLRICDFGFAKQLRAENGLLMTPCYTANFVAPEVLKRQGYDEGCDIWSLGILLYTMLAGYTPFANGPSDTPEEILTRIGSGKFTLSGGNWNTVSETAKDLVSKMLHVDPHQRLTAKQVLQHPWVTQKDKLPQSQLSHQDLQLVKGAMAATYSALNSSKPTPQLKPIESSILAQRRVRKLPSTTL

Sequence of Serine/threonine-protein kinase tousled-like 2 (Homo sapiens) (Q86UE8 whole entry, looked up): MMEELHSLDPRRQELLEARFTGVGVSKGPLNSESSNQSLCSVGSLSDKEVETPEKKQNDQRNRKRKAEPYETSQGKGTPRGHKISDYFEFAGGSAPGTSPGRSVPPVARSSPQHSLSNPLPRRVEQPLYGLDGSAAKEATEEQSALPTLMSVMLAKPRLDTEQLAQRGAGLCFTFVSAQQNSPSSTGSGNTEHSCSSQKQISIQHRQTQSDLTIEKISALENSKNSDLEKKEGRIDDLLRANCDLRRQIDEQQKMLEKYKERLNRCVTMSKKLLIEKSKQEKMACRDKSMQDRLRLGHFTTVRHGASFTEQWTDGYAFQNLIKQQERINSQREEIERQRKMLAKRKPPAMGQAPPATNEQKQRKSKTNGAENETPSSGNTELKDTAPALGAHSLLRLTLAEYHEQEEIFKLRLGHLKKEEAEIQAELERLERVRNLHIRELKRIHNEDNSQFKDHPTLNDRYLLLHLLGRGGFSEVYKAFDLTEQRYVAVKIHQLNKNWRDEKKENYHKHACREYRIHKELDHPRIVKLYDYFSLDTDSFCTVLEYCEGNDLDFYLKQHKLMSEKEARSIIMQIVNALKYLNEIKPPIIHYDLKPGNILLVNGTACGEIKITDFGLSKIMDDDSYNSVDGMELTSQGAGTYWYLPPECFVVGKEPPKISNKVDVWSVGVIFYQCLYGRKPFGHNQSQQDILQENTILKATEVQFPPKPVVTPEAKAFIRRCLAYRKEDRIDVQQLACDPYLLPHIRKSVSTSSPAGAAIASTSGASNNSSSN

Structure (SMILES): COCC(=O)NC/C=C/c1ccc2ncnc(Nc3ccc(Oc4ccc(C)nc4)c(C)c3)c2c1 [CP-724714]
- % of control [1]: 100%

Structure (SMILES): CNCCN1CCC(c2cc(CN(C)C(=O)c3cccc(Oc4ccccc4)c3)ccn2)CC1
- % activity [2]: > 90%

Structure (SMILES): O=C(NOC[C@H](O)CO)c1ccc(F)c(F)c1Nc1ccc(I)cc1F
- % of control [3]: 96%

Structure (SMILES): COc1cc(Nc2nc(C)cc(-c3cnn4nc(OC)ccc34)n2)cc(C(F)(F)F)c1
- % of control [4]: 94%

Structure (SMILES): Cc1ccc(-c2ccc3c(ccc4sc5c(c43)NC[C@@H](C)NC5=O)n2)cn1
- % of inhibition [5]: -19%

Structure (SMILES): Cn1cc(Nc2nccc(N3CC4CCC(C3)N4C(=O)[C@@H]3CC3(F)F)n2)cn1
- % of inhibition [6]: 63%

Structure (SMILES): CN1Cc2nccc(-c3cn(C)nc3-c3ccc(F)cc3)c2C1=O
- % of inhibition [7]: -3%

Structure (SMILES): CC[C@@H]1[C@H](F)C(=O)N[C@@H]1COc1nccc2cc(C(N)=O)c(OC)cc12 [ZIMLOVISERTIB]
- % of inhibition [8]: -3.7%
- % of inhibition [9]: -3%

Structure (SMILES): CN(C)CCOc1ccc(-c2nc(-c3ccncc3)c(-c3ccc4c(c3)CC/C4=N\O)[nH]2)cc1
- % of control [10]: 77%
- % of control [11]: 88%
- % of control [12]: 100%

Structure (SMILES): CCN(CC)CCCCNc1ncc2cc(-c3cc(OC)cc(OC)c3)c(NC(=O)NC(C)(C)C)nc2n1
- % of control [13]: 100%

Structure (SMILES): CN(C)C/C=C/C(=O)Nc1ccc(C(=O)N2CCCC(Nc3ncc(Cl)c(-c4c[nH]c5ccccc45)n3)C2)cc1 (centres undefined)
- % of control [14]: 89%
